Source: patent publication EP1108710A1, “GUAIACOXYPROPANOLAMINES WITH ALPHA/BETA-ADRENERGIC BLOCKING ACTIVITY” (Cheng, Ing-Jun, priority 1998, dated 2000)
Where two headings read alike, the source gives them in different places.

Tests used:
[1] = system: normotensive rats; assay: Heart rate and blood pressure in living (anaesthetized) rat, intravenous injection; type: in vivo, Wistar rats; conditions: lmg/kg; via femoral vein, rats
Excerpt: Male Wistar rats, weighing 200 ∼ 300g were abdominal anaesthetized with pentobarbital sodium. Tracheal was cannulated to maintain normal respiration. Polyethylene tube was inserted into the left femoral vein to facilitate drug administration. A 3-way stopcock was used, with one end connected to a syringe for drug injection, while the other end was connected to the syringe filled with physiological saline. The latter was used to prevent residual drugs in the polyethylene tube after injection, which would affect experimental accuracy.
The right femoral artery was also inserted with polyethylene, and a 3-way stopcock was used tool, where one end was connected to heparin solution to prevent embolism. The other end was connected to a Disposable Diaphragm Dome, TA1019, and linked to a transducer. Through an amplifier, a recorder recorded the overall and average arterial pressure; heart rate to evaluate the effect of drug on blood pressure and heart rate.

[2] = system: Wistar rat's isolated thoracic aorta; assay: Isolated thoracic aorta contraction caused by 75mM KCl
Experimental: After sacrificing Wistar rat of weight between 300 - 500 gm, the thoracic aorta was immediately removed and placed in cold Kreb's solution. The fatty connecting tissue surrounding the vessel wall was removed and the thoracic aorta was cut into rings of length 5 mm. The two ends of each ring was pieced and fixed with "Z" shaped platinum wires. […] When the results had been recorded for at least 35 minutes, the aorta was repeatedly rinsed with normal Kreb's solution. […] 30 minutes later, 75mM KCl was added again to induce vasoconstriction.

[3] = system: Wistar rat's isolated; reserpine pretreated right atrium beating rate and left atrium isometric contractions; assay: Direct effect (intrinsic sympathomimetic activity) on reserpine-pretreated isolated atria
Experimental: Pharmacol 311, pp. 205-218 and pp 237-248 (1980). Wistar rats of weight between 200 ∼ 300 gm were used. 18 ∼ 24 hours before the experiment, 5mg/kg of reserpine was injected via abdominal cavity to remove all endogenous catecholamines. Prior experiment, Wistar rats were sacrificed, the heart was immediately removed and placed in Kreb's solution aerated with air mixture and maintained at room temperature. The right and left atria were carefully separated.

[4] = system: guinea pig's isolated; reserpine pretreated tracheal; assay: Direct effect (tracheal relaxation, intrinsic sympathomimetic activity) on reserpine-pretreated isolated trachea, with and without ICI 118,551; conditions: cumulative administration 10^-10∼3x10^-6 M, reserpine pretreated
Experimental: Pharmacol 311, pp. 205-218 and pp.237-248 (1980). guinea pigs of weight between 350 ∼ 500 gm were used. 18 ∼ 24 hours before the experiment, 5mg/kg of reserpine was injected via abdominal cavity to remove all endogenous catecholamines. Prior experiment, guinea pigs were sacrificed, the tracheal was immediately removed and placed in Kreb's solution aerated with air mixture and maintained at room temperature of 22 ∼ 25°C. […] […] Then the tissue was repeatedly washed with Kreb's solution. After the tissue had been re-equilibrated for 60 minutes, ICI 118, 551 were administed. After treatment for 30 minutes, compound 1 of similar concentration was administered, and the intrinsic sympathomimetic activity of tracheal was observed.

[5] = molecular target: T1, β-adrenoreceptor (β1) (Rattus norvegicus, UniProt P18090); assay: β-adrenoceptor blocking action on isolated spontaneously beating right atrium (L-isoproterenol-induced heart rate increase, Schild plot); design: species or system Wistar rat; conditions: from the average pA2 difference between right atrium and tracheal
T1 construct: The right and left atria were then separated; from tissue; host or cells: isolated rat right and left atria
T1 sequence (P18090 whole entry): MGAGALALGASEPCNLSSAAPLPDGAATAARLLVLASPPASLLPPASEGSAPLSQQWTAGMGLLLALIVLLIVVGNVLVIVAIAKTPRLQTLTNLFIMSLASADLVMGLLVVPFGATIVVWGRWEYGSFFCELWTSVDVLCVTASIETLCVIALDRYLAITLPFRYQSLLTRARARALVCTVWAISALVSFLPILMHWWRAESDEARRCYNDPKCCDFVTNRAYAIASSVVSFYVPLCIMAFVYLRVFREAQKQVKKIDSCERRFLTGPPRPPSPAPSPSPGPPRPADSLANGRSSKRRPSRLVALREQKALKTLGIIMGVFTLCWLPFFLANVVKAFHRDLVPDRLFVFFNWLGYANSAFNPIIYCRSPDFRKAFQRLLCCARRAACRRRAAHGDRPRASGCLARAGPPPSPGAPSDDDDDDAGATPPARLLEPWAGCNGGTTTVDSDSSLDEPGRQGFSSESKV
Experimental: The right and left atria were then separated. The spontaneously-beating right atria was clipped on both end by heart shaped clips, where one end was fixed at the bottom of 10ml of tissue bath made of physiological saline solution, and temperature maintained at 37°C. The other end of the atria was connected to a force transducer, and isometric contractions and beating rate of the right atria were recorded by COULBOURN AT-High-Speed VideoFigure. […] Cumulative administration interval was when the previous concentration reached its greatest effect, the next concentration would be immediately given.

[6] = 10^-8M, thoracic aorta contraction caused by 75mM KCl

SMILES | Lowering of Blood Pressure [1] [mm Hg] | Reduction of Heart Rate [1] [beats/min] | Aorta Relaxation [2, 6] [%] | other results
CCOC(=O)C1=C(C)NC(C)=C(C(=O)OCC)C1c1cc(Cl)ccc1OCC(O)CNCCOc1ccccc1OC (stereo not shown) [compound 6] | 80± 3 | 35± 5 |  | Aorta Relaxation [2]: 45± 4%
CCOC(=O)C1=C(C)NC(C)=C(C(=O)OCC)C1c1cc([N+](=O)[O-])ccc1OCC(O)CNC(C)(C)C (stereo not shown) [compound 8] | 80± 3 | 40± 4 | 43± 3 | 
CC(C)NCC(O)COc1ccc(CC(N)=O)cc1 (stereo not shown) [ATENOLOL] |  |  |  | atrial blocking effect ([3]; 3x10-4M): almost does not have atrial blocking effect
CCOC(=O)C1=C(C)NC(C)=C(C(=O)OCC)C1c1cc(Cl)ccc1OCC(O)CNC(C)(C)C (stereo not shown) [compound 4] | 76± 6 | 33± 3 | 35± 5 | 
CC(C)NCC(O)COc1cccc2ccccc12 (stereo not shown) [PROPRANOLOL] |  |  |  | direct effect on atrial tissue ([3]; 10^-4∼10^-3 M): could inactivate or unexcited the tissue; direct effect on right atrium beating rate and left atrium isometric contractions ([3]; cumulative administration, reserpine pretreated): could retard the beating rate and isometric contractions; tracheal relaxation effect [4]: did not produce any relaxation effect
CC(C)NC[C@H](O)c1ccc(O)c(O)c1 [L-isoproterenol] |  |  |  | tracheal relaxation effect [4]: dose-dependant tracheal relaxation effect
COC(=O)C1=C(C)NC(C)=C(C(=O)OC)C1c1ccc(OCC(O)CNCCOc2ccccc2OC)c(OC)c1 (stereo not shown) [compound 2, 4-{{N-{4-[2-hydroxy-3-(2-methoxy-1-oxyethyl-aminobenzene)propoxy]-3-methoxy}phenyl}}-2,6-dimethyl-3,5-dicarbo-methoxy-1,4-dihydropyridine] | 75± 2 | 35± 4 | 40± 4 | 
CCCCNCC(O)COc1ccc(Cl)cc1C1C(C(=O)OCC)=C(C)NC(C)=C1C(=O)OCC (stereo not shown) [compound 5] | 74± 4 | 32± 4 | 33± 2 | 
COc1cc(C=O)ccc1OCC(O)CNC(C)(C)C (stereo not shown) [VANIDILOL, reference compound] |  |  |  | selectivity ratio of β1 type adrenoceptor (effect on right atrium relative to tracheal) [5]: 0.98 X; tracheal relaxation effect [4]: dose-dependant tracheal relaxation effect
CCOC(=O)C1=C(C)NC(C)=C(C(=O)OCC)C1c1ccc(OCC(O)CNCCOc2ccccc2OC)c(OC)c1 (stereo not shown) [compound 3, 4-{{N-{4-[2-hydroxy-3-(2-methoxy-1-oxyethyl-aminobenzene)propoxy]-3-methoxy}phenyl}}-2,6-dimethyl-3,5-dicarboethoxy-1,4-dihydropyridine] | 78± 5 | 37± 5 | 41± 2 | 
CCOC(=O)C1=C(C)NC(C)=C(C(=O)OCC)C1c1ccc(OCC(O)CNCCOc2ccccc2OC)c(Cl)c1 (stereo not shown) [compound 7, 4-{{N-{4-[2-hydroxy-3-(2-methoxy-1-oxyethylaminobenzene)propoxy]-3-choloro}phenyl}}-2,6-dimethyl-3,5-dicarbo-ethoxy-1,4-dihydropyridine] | 82± 6 | 40± 2 | 45± 5 | 
CCOC(=O)C1=C(C)NC(C)=C(C(=O)OCC)C1c1cc([N+](=O)[O-])ccc1OCC(O)CNCCOc1ccccc1OC (stereo not shown) [compound 9] | 85± 6 | 40± 5 | 47± 2 | 
